Results taken from paper PMC8291587, “Guanidine Derivatives: How Simple Structural Modification of Histamine H3R Antagonists Has Led to the Discovery of Potent Muscarinic M2R/M4R Antagonists” (ACS Chemical Neuroscience, 2021).
pKi: −log10 of the molar value. Like-named read-outs stand apart in the source and are kept apart here.

Experiments:
[1] = target: T1, hM4R (Homo sapiens, UniProt P08173); test: hM4R radioligand binding ([3H]NMS, CHO cell membranes)
T1 construct: host or cells: CHO cells, stably transfected; crude membranes
T1 sequence (P08173 1-479): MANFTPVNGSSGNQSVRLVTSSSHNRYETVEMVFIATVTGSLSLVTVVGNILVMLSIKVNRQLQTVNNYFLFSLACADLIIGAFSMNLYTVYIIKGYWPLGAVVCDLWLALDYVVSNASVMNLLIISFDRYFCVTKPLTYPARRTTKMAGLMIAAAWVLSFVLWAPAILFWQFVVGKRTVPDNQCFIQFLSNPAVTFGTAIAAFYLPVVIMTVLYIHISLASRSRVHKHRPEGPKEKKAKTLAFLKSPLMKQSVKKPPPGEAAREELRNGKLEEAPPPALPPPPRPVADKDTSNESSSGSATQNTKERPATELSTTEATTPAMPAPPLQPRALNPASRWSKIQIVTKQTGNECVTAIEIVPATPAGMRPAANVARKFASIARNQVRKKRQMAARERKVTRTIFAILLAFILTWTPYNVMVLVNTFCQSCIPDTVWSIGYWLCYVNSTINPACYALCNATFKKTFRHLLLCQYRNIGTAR
Description: (§1) To clearly explain the obtained outcome, we engaged the radioligand binding experiment. The hM1–hM5 radioligand binding experiments were performed in the membrane fractions of Chinese hamster ovary cells (CHO) stably expressing human variants of muscarinic receptors. N-[^3H]Methylscopolamine was used as the radiolabeled ligand.[39] Three compounds were selected from ex vivo screening on guinea pig ileum. […] This compound is also not completely selective for the remaining muscarinic receptor subtypes with −log Ki values over 6. […] It is also a potent muscarinic M1R antagonist, and the M1R/M2R selectivity ratio is <10. It is worth noting that such nonspecific anticholinergics are often associated with neuropsychiatric and cognitive disturbances and that nonselective muscarinic M1R/M2R antagonists, such as scopolamine, can produce cognitive deficits. Further structural modifications of ADS10227 should be used to increase selectivity toward the M2R, as these may present fewer potential side effects associated with the activation of the phospholipase C signaling pathway.
(§2) The culture was derived from CHO cells stably transfected with the genes of human variants of muscarinic receptors. These were purchased from Missouri S&T cDNA Resource Center (Rolla, MO, USA). Cell cultures and crude membranes were prepared as described previously.[45] […]
(§3) All radioligand binding experiments were optimized and carried out according to general guidelines.[39] […] N-Methylscopolamine binding was measured directly in saturation experiments using six concentrations (30–1000 pM) of [^3H]NMS during incubation for 1 h (M2R), 3 h (M1R, M3R, and M4R), or 5 h (M5R). For calculations of the equilibrium dissociation constant (KD), concentrations of free [^3H]NMS were calculated by subtraction of bound radioactivity from total radioactivity in the sample and fitting eq 1 (Experimental Data analysis section). The binding of the tested ligands was determined in competition experiments with 100 pM [^3H]NMS. […] Nonspecific binding was determined in the presence of 1 μM unlabeled atropine. […]

[2] = target: T2, hM5R (Homo sapiens, UniProt P08912); test: hM5R radioligand binding ([3H]NMS, CHO cell membranes); details: for Ki: read-out: hM5R -log(Ki) ± sem (converted)
T2 construct: host or cells: CHO cells, stably transfected; crude membranes
T2 sequence (P08912 1-532): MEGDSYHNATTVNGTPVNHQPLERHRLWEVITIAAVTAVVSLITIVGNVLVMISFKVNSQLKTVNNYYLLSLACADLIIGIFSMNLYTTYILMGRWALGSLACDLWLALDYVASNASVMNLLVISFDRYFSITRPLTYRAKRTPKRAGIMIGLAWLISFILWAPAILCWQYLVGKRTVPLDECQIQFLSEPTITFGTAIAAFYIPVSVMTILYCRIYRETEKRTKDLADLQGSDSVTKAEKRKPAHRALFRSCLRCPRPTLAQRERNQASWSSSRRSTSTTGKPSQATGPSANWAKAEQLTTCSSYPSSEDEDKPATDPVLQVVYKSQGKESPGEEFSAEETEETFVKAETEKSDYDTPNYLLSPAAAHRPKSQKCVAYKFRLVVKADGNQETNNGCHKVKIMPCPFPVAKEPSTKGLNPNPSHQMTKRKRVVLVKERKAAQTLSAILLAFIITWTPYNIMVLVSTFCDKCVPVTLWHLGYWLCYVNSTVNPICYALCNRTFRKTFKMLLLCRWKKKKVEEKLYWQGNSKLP
Description: as §1, §2, §3

[3] = target: T3, hM1R (Homo sapiens, UniProt P11229); test: hM1R radioligand binding ([3H]NMS, CHO cell membranes); details: for Ki: read-out: hM1R -log(Ki) ± sem (converted)
T3 construct: host or cells: CHO cells, stably transfected; crude membranes
T3 sequence (P11229 1-460): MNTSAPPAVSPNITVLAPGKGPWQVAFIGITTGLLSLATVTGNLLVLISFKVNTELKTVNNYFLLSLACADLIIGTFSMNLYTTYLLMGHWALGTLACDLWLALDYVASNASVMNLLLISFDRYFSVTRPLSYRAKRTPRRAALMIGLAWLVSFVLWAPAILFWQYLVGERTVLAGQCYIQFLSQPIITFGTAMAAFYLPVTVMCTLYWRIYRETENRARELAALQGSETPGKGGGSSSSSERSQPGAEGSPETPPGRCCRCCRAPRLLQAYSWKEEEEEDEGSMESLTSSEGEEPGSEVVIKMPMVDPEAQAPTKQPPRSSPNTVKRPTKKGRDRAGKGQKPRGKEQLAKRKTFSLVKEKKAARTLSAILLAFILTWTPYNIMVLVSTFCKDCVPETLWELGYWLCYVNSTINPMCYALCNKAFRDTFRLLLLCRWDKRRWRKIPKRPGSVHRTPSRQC
Description: as §1
The culture was derived from CHO cells stably transfected with the genes of human variants of muscarinic receptors. These were purchased from Missouri S&T cDNA Resource Center (Rolla, MO, USA). Cell cultures and crude membranes were prepared as described previously.[45] The cells were grown to confluence in 75 cm^2 flasks in Dulbecco’s modified Eagle’s medium (DMEM) supplemented with 10% fetal bovine serum, and 2 million cells were subcultured to 100 mm Petri dishes. The medium was supplemented with 5 mM butyrate for the last 24 h of cultivation to increase receptor expression. Cells were detached by mild trypsinization on day 5 after subculture. Detached cells were washed twice in 50 mL of phosphate-buffered saline and 3 min centrifugation at 250g. […]
as §3

| Ki ([1]; [3H]NMS, CHO membranes, read-out: hM4R -log(Ki) ± sem (converted)) [nM] | pKi ([3]; read-out: affinity to hM1R (Ki)) | SMILES | Ki [2] [nM] | Ki [3] [nM] | pKi ([1]; [3H]NMS, CHO membranes, read-out: affinity to hM4R (Ki)) | pKi [1] | pKi ([2]; hM5R -log(Ki) ± sem) | pKi ([3]; hM1R -log(Ki) ± sem) |
| --- | --- | --- | --- | --- | --- | --- | --- | --- |
| 15.1 | 7.35 | [H]/N=C(/N)N(CCCCN1CCN(CC2CCC(COc3ccccc3)CC2)CC1)Cc1ccc(C(F)(F)F)cc1 (stereo not shown) [ADS10239] | 832 | 46.8 |  |  |  |  |
|  |  | N=C(N)N(CCCCN1CCN(C[C@H]2CC[C@@H](COc3ccccc3)CC2)CC1)Cc1ccccc1 [ADS10227, 1-{4-{4-{[4-(phenoxymethyl)cyclohexyl]methyl}piperazin-1-yl}but-1-yl}-1-(benzyl)guanidine] | 195 | 19.5 | 8.29 |  |  |  |
|  |  | N=C(N)N(CCCCN1CCN(CCCCCCCOc2ccccc2)CC1)Cc1ccccc1 [ADS1017] |  |  |  | 7.17 | 6.33 | 6.85 |
